Test results: US7723562B2, “Mice lacking alpha 1G showing enhanced novelty-seeking and alcohol preference and therapeutic methods for mood disorders by modulating alpha 1G T-type calcium channels” (Korea Institute of Science and Technology, priority 2004, dated 2010)
“Also recorded” adds a separate entry of the source.

Test system: α1G−/− transgenic mice
Assay: Mobility in an open field after drug treatment (pharmacological analysis)
Assay type: in vivo, mouse
Details: 0.5 mg/kg injected into abdominal cavity, FIG. 8
Excerpt: For reactivity test in an open field, a test animal was transferred to a test room one hour before the test began and each animal was put in an independent breeding cage for adaptation.
In order to investigate whether or not mobility increase of α1G−/− transgenic mice is related to diseases such as attention-deficit hyperactive disorder, schizophrenia, stereotype, etc., the present inventors have performed analysis of pharmacological effect of lithium and amphetamine which have been used as a therapeutic agent for the above diseases.
First, the effect of lithium and amphetamine on reactivity to a new subject was investigated. Particularly, one hour before exposing a test animal on an experimental device, lithium or amphetamine (0.5 mg/kg, injection 10 ml/kg) was injected into abdominal cavity of the animal. The test procedure was in accordance with that of reactivity test in an open field, but a breeding cage (24×18×13 cm) took the place of a white acryl open field in this example and a subject used was a styrofoam covered with 0.5 g aluminum foil and the size of which was 1.5×1.5×1.5 cm. Behavior of the animal was all recorded by a video camera for further analysis. Same standard and behavior index were used.

CC(N)Cc1ccccc1 (centres unmarked) [amphetamine]
early mobility increase of α1G−/− transgenic mice: not mitigated; also recorded: did not decrease | non environment dependent mobility increase: over-induced; also recorded: increased excessively
